Test systems include 786-0 renal; HT29 colon; UO-31 renal; HOP-18 NSCLC; OVCAR-3 ovarian; SK-MEL-28 melanoma; M14 melanoma; LXFL 529 NSCLC; HOP-62 NSCLC; MCF7 breast.
Test in all cases: growth of human tumour cells (NCI), 48 h

Structures are written as SMILES.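 A five-concentration, 48-hour dose response in 96-well plates underlies each endpoint, interpolated linearly between surrounding concentrations. The concentration for 50% growth inhibition is given as GI50. The concentration for full growth arrest is given as TGI.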

As to `O=C1/C(=C/c2ccc(Cl)cc2)CCC1CCN1CCOCC1` (centres undefined), the TGI with 786-0 renal, with HT29 colon, with UO-31 renal, with HOP-18 NSCLC, in the assay with OVCAR-3 ovarian and in the assay on SK-MEL-28 melanoma was over 100 µM in each case. Further, the TGI with M14 melanoma, with LXFL 529 NSCLC and in the assay on HOP-62 NSCLC was over 100 µM each time.

On to `Cc1ccc(NC(=O)CCc2cc(C(C)(C)C)nc(=S)[nH]2)cc1C`, for which the TGI in the assay with 786-0 renal, in the assay with HT29 colon, in the assay with UO-31 renal, with HOP-18 NSCLC, in the assay on OVCAR-3 ovarian and in the assay on SK-MEL-28 melanoma was over 100 µM in each case. Besides, the TGI with M14 melanoma, in the assay with LXFL 529 NSCLC and in the assay with HOP-62 NSCLC was over 100 µM each time.

For the compound `CCC(C)COC(=O)c1ccc(N=Cc2ccc(C=Nc3ccc(C(=O)OCC(C)CC)cc3)cc2)cc1` (centres undefined), the TGI in the assay with 786-0 renal, in the assay with HT29 colon, in the assay with UO-31 renal, with HOP-18 NSCLC, with OVCAR-3 ovarian and in the assay with SK-MEL-28 melanoma was over 100 µM each time. Moreover, the TGI in the assay on M14 melanoma, with LXFL 529 NSCLC and in the assay with HOP-62 NSCLC was over 100 µM each time.

For `CC12CP(=O)(c3ccccc3)CC1C2(Cl)Cl` (centres undefined), the TGI in the assay on 786-0 renal, with HT29 colon, in the assay on HOP-18 NSCLC, with OVCAR-3 ovarian, in the assay with SK-MEL-28 melanoma and with M14 melanoma was over 100 µM in each case. In addition, the TGI in the assay with LXFL 529 NSCLC and with HOP-62 NSCLC was over 100 µM in each case.

`Cc1cc(Cl)ccc1NC(=O)C(=O)Cc1nc2ccccc2o1`: the TGI with 786-0 renal, with HT29 colon, with UO-31 renal, in the assay with HOP-18 NSCLC, in the assay with OVCAR-3 ovarian and in the assay on SK-MEL-28 melanoma was over 100 µM in each case. The TGI in the assay on M14 melanoma, in the assay with LXFL 529 NSCLC and in the assay with HOP-62 NSCLC was over 100 µM throughout.

In the case of `CCOc1ccccc1NC(=O)C(=O)CC(=O)c1sc(Nc2nnc(-c3ccc(Cl)c(Cl)c3)o2)nc1C`, the TGI in the assay on 786-0 renal, in the assay on HT29 colon, in the assay on UO-31 renal, in the assay with HOP-18 NSCLC, in the assay with OVCAR-3 ovarian and with SK-MEL-28 melanoma was over 100 µM each time. Also, the TGI with M14 melanoma, in the assay with LXFL 529 NSCLC and in the assay on HOP-62 NSCLC was over 100 µM throughout.

`O=c1ccn([C@H]2CSC[C@@H](CO)C2)c(=O)[nH]1`: the TGI with 786-0 renal, in the assay on HT29 colon, in the assay with UO-31 renal, in the assay with HOP-18 NSCLC, in the assay on OVCAR-3 ovarian and in the assay on SK-MEL-28 melanoma was over 100 µM in each case. In addition, the TGI in the assay on M14 melanoma, with LXFL 529 NSCLC and in the assay on HOP-62 NSCLC was over 100 µM throughout.

With `CCCc1nc(NC#N)nc(C(=O)Nc2ccccc2)c1CC`, the TGI with 786-0 renal, in the assay on HT29 colon, in the assay with UO-31 renal, in the assay with HOP-18 NSCLC, in the assay on OVCAR-3 ovarian and in the assay with SK-MEL-28 melanoma was over 100 µM in each case. Also, the TGI in the assay on M14 melanoma, with LXFL 529 NSCLC and with HOP-62 NSCLC was over 100 µM throughout.

Turning to `C1=CC(N(c2ccccc2)C2C=CCCC2)CCC1` (centres undefined), the TGI in the assay with 786-0 renal, with HT29 colon, in the assay with HOP-18 NSCLC, in the assay with SK-MEL-28 melanoma, in the assay on M14 melanoma and in the assay with LXFL 529 NSCLC was over 100 µM in each case.

Consider `CC(=O)c1sc(Nc2nnc(-c3ccc(-c4nnc(Nc5nc(C)c(C(C)=O)s5)o4)cc3)o2)nc1C`, for which the TGI with 786-0 renal is over 100 µM; with HT29 colon it was over 100 µM; in the assay with UO-31 renal, over 10 µM; in the assay with HOP-18 NSCLC, over 100 µM; in the assay on OVCAR-3 ovarian, over 100 µM; with SK-MEL-28 melanoma, over 100 µM. Also, the TGI in the assay with M14 melanoma, in the assay with LXFL 529 NSCLC and with HOP-62 NSCLC was over 100 µM throughout.

In the case of `OCC1OC(c2nc(C3=NCCCN3)cs2)C(O)C1O` (centres undefined), the TGI in the assay with 786-0 renal was over 100 µM; in the assay with HT29 colon it was over 100 µM; in the assay on UO-31 renal, over 100 µM; in the assay on HOP-18 NSCLC it was over 100 µM; in the assay on OVCAR-3 ovarian, over 10 µM; in the assay with SK-MEL-28 melanoma, over 100 µM. Moreover, the TGI in the assay on M14 melanoma, in the assay on LXFL 529 NSCLC and with HOP-62 NSCLC was over 100 µM in each case.

Consider `CC(=O)OC12C=CC(=O)N1c1ccccc1C(=O)O2` (centres undefined), for which the TGI in the assay with 786-0 renal, with HT29 colon, in the assay with MCF7 breast, in the assay on UO-31 renal, in the assay on HOP-18 NSCLC and with OVCAR-3 ovarian was over 100 µM each time. Moreover, the TGI in the assay on SK-MEL-28 melanoma, with M14 melanoma, with LXFL 529 NSCLC and with HOP-62 NSCLC was over 100 µM throughout. In addition, the GI50 in the assay with MCF7 breast is over 100 µM.

As for `CCOc1ccc(NC(=O)CC#N)cc1`, the TGI with 786-0 renal, with HT29 colon, in the assay on UO-31 renal, in the assay on HOP-18 NSCLC, with OVCAR-3 ovarian and with SK-MEL-28 melanoma was over 100 µM throughout. Also, the TGI with M14 melanoma, in the assay with LXFL 529 NSCLC and in the assay with HOP-62 NSCLC was over 100 µM throughout.

For `O=C(CCc1n[nH]c(=S)o1)Nc1ccccc1C(F)(F)F`, the TGI in the assay with 786-0 renal, in the assay on HT29 colon, in the assay with UO-31 renal, in the assay with HOP-18 NSCLC, with OVCAR-3 ovarian and with SK-MEL-28 melanoma was over 100 µM each time. Also, the TGI in the assay on M14 melanoma, in the assay on LXFL 529 NSCLC and in the assay with HOP-62 NSCLC was over 100 µM each time.

With `O=C(Nc1nc(=S)c2c(ncn2CCOC(=O)c2ccccc2)[nH]1)c1ccccc1`, the TGI in the assay with 786-0 renal, in the assay with HT29 colon, with UO-31 renal, with HOP-18 NSCLC, in the assay on OVCAR-3 ovarian and in the assay on SK-MEL-28 melanoma was over 100 µM each time. Also, the figures for the TGI in the assay on M14 melanoma, in the assay with LXFL 529 NSCLC and in the assay on HOP-62 NSCLC were over 100 µM, over 100 µM and 79.6 µM, respectively.

With `O=C(/C=C/c1cccc2ccccc12)c1ccccc1Cl`, the TGI was 27.2 µM with 786-0 renal; 26.4 µM in the assay on HT29 colon; 28 µM with UO-31 renal; 33.3 µM with HOP-18 NSCLC; 25.6 µM in the assay with OVCAR-3 ovarian; 34 µM with SK-MEL-28 melanoma. Moreover, the TGI in the assay on M14 melanoma came out at 29.3 µM; in the assay on LXFL 529 NSCLC, 26.8 µM; in the assay on HOP-62 NSCLC it was 37.3 µM.

`Cc1cc(N(CCC#N)CCC#N)ccc1N=Nc1ccc(C(=O)O)cc1`: the TGI with 786-0 renal, with HT29 colon, in the assay with UO-31 renal, with HOP-18 NSCLC, in the assay on OVCAR-3 ovarian and with SK-MEL-28 melanoma was over 100 µM in each case. The TGI in the assay with M14 melanoma, in the assay with LXFL 529 NSCLC and in the assay on HOP-62 NSCLC was over 100 µM in each case.

As to `CN(C)CC1CCCC/C1=N/OC(=O)c1ccc(Cl)cc1` (centres undefined), the TGI in the assay with 786-0 renal, in the assay with HT29 colon, in the assay on UO-31 renal, with HOP-18 NSCLC, in the assay with OVCAR-3 ovarian and in the assay on SK-MEL-28 melanoma was over 100 µM each time. The TGI in the assay with M14 melanoma, in the assay on LXFL 529 NSCLC and in the assay on HOP-62 NSCLC was over 100 µM each time.

As for `Cc1[nH]c2ccccc2c1C(=O)/C=C/c1ccccc1O`, the TGI with 786-0 renal, in the assay with HT29 colon, with UO-31 renal, in the assay on HOP-18 NSCLC, in the assay on OVCAR-3 ovarian and with SK-MEL-28 melanoma was over 100 µM throughout. The TGI in the assay on M14 melanoma, with LXFL 529 NSCLC and in the assay with HOP-62 NSCLC was over 100 µM in each case.
